Measured values published in ChEMBL document CHEMBL1201862, “PubChem BioAssay data set” (2004).
Blank lines part the entries; values can stand above or below the compound they belong to. Activity calls are given as the source filed them.

How the values were obtained:
Format in all cases: functional
[1] = molecular target: T1, Apoptotic protease-activating factor 1 (Homo sapiens, UniProt O14727); experiment: SAR analysis of small molecule inhibitors of Apaf-1 in a Fluorescent assay.; conditions: read-out: IC50_Mean
T1 sequence (O14727 whole entry): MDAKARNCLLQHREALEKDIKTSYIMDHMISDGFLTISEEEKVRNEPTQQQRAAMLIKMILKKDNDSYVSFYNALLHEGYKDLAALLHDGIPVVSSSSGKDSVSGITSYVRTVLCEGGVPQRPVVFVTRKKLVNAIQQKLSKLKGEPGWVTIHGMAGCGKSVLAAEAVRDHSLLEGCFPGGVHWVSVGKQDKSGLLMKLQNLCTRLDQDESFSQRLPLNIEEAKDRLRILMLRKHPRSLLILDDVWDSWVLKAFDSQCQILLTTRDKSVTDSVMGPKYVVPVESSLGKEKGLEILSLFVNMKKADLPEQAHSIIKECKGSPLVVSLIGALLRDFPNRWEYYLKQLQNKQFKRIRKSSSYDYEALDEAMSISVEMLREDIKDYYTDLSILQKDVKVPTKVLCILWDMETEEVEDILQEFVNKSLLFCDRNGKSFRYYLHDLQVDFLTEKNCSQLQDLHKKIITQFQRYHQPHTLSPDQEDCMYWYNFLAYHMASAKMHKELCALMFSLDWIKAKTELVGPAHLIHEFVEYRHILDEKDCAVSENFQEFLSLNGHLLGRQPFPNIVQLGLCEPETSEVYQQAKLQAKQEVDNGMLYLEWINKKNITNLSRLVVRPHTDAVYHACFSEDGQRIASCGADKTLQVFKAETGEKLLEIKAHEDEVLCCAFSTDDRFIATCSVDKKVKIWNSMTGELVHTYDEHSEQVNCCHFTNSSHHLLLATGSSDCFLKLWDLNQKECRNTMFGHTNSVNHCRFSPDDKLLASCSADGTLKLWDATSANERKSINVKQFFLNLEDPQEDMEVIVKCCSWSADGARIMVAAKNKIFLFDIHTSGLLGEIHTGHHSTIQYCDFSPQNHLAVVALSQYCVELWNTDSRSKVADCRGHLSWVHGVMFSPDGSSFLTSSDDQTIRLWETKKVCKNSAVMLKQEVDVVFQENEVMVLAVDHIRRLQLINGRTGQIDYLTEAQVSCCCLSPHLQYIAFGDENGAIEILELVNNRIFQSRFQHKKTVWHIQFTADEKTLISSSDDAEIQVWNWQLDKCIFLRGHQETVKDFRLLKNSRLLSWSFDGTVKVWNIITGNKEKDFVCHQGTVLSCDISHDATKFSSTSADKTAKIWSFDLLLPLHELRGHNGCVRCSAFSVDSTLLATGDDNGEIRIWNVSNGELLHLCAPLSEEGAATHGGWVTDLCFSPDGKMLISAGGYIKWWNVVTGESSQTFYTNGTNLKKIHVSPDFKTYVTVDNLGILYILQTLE

[2] = molecular target: MAP kinase-activated protein kinase 3 (Homo sapiens, UniProt Q16644);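 note: value comes from a kinome-wide profiling panel in which MAPKAPK3 is one of the panel members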
[3] = HeLa 2N DNA content increase, dose response, cell-based, IC50 (AID 1117349)
[4] = molecular target: Cell division cycle 7-related protein kinase (Homo sapiens, UniProt O00311);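 note: value obtained from a kinome-wide kinase panel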
[5] = molecular target: Lymphokine-activated killer T-cell-originated protein kinase (Homo sapiens, UniProt Q96KB5);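 note: value comes from a kinase panel screen in which TOPK was one of the panel members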
[6] = HeLa 4N DNA content increase, dose response, cell-based, IC50 (AID 1117351)
[7] = molecular target: Dual specificity tyrosine-phosphorylation-regulated kinase 3 (Homo sapiens, UniProt O43781);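 note: measured as one member of a broad kinase panel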
[8] = molecular target: Testis-specific serine/threonine-protein kinase 2 (Homo sapiens, UniProt Q96PF2);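 note: part of the Navigating the Kinome panel, target entry STK22B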
[9] = molecular target: G protein-coupled receptor kinase 5 (Homo sapiens, UniProt P34947); experiment: Navigating the Kinome. Panel member name: GPRK5
[10] = molecular target: Eukaryotic elongation factor 2 kinase (Homo sapiens, UniProt O00418)
[11] = molecular target: Dual specificity tyrosine-phosphorylation-regulated kinase 4 (Homo sapiens, UniProt Q9NR20)
[12] = molecular target: Protein kinase C gamma type (Homo sapiens, UniProt P05129)
[13] = molecular target: Serine/threonine-protein kinase Nek2 (Homo sapiens, UniProt P51955)
[14] = molecular target: Serine/threonine-protein kinase MRCK alpha (Homo sapiens, UniProt Q5VT25)
[15] = molecular target: Serine/threonine-protein kinase BRSK1 (Homo sapiens, UniProt Q8TDC3);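 note: measured within a kinome-wide kinase panel, with the target listed as KIAA1811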
[16] = molecular target: Interleukin-1 receptor-associated kinase 4 (Homo sapiens, UniProt Q9NWZ3)
[17] = molecular target: MAP kinase-interacting serine/threonine-protein kinase 2 (Homo sapiens, UniProt Q9HBH9)
[18] = molecular target: Mitogen-activated protein kinase kinase kinase kinase 5 (Homo sapiens, UniProt Q9Y4K4);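 note: measured as one member of a kinome-spanning kinase panel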
[19] = molecular target: STE20-like serine/threonine-protein kinase (Homo sapiens, UniProt Q9H2G2)
[20] = molecular target: Serine/threonine-protein kinase PAK 1 (Homo sapiens, UniProt Q13153)
[21] = molecular target: Cyclin-dependent kinase 5 (Homo sapiens, UniProt Q00535);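 note: CDK5 measured as one member of a kinase profiling panel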
[22] = molecular target: Mitogen-activated protein kinase kinase kinase kinase 4 (Homo sapiens, UniProt O95819)
[23] = molecular target: Serine/threonine-protein kinase DCLK1 (Homo sapiens, UniProt O15075);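 note: affinity for DCLK1 (listed as DCAMKL1) measured as one member of a kinome-wide kinase profiling panel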
[24] = molecular target: Rho-associated protein kinase 1 (Homo sapiens, UniProt Q13464);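 note: measured within a broad kinome-wide panel profiling many kinases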
[25] = molecular target: RAC-gamma serine/threonine-protein kinase (Homo sapiens, UniProt Q9Y243)
[26] = molecular target: Dual specificity tyrosine-phosphorylation-regulated kinase 1A (Homo sapiens, UniProt Q13627);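 note: measured against DYRK1A as one member of a broad kinome profiling panel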
LIM domain kinase 1 = LIM domain kinase 1 (Homo sapiens, UniProt P53667); experiment: Navigating the Kinome. Panel member name: LIMK1
[27] = molecular target: Serine/threonine-protein kinase pim-1 (Homo sapiens, UniProt P11309)
[28] = molecular target: Serine/threonine-protein kinase D3 (Homo sapiens, UniProt O94806);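 note: determined within a kinase panel screen, with PRKCN as the panel member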
[29] = molecular target: Serine/threonine-protein kinase pim-3 (Homo sapiens, UniProt Q86V86);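 note: value obtained as one member of a broad kinase panel profiling effort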
[30] = molecular target: Serine/threonine-protein kinase TAO1 (Homo sapiens, UniProt Q7L7X3)

Sequence of MAP kinase-activated protein kinase 3 (Q16644 whole entry): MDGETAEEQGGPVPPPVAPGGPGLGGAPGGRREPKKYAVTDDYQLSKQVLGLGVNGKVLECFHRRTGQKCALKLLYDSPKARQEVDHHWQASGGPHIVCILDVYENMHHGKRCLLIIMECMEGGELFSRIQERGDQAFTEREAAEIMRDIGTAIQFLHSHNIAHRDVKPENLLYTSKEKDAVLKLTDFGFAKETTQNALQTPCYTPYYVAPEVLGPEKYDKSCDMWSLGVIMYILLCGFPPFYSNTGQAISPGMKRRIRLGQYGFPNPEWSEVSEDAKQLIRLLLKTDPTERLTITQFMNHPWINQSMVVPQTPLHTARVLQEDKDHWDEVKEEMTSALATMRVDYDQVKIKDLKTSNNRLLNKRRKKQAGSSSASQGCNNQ
Sequence of MAP kinase-interacting serine/threonine-protein kinase 2 (Q9HBH9 whole entry): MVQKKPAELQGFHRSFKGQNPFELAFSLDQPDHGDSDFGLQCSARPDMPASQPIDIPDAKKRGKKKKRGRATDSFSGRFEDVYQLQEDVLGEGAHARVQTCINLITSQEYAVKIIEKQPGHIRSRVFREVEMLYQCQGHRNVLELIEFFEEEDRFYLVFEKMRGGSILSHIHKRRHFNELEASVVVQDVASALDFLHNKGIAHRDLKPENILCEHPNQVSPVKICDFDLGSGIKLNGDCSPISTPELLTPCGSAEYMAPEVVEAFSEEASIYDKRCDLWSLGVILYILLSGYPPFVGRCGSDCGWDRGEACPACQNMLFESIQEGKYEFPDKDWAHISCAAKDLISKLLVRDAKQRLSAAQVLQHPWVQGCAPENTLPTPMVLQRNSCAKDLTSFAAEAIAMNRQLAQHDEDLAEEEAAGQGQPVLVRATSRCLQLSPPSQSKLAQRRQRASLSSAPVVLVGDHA
Sequence of Serine/threonine-protein kinase DCLK1 (O15075 whole entry): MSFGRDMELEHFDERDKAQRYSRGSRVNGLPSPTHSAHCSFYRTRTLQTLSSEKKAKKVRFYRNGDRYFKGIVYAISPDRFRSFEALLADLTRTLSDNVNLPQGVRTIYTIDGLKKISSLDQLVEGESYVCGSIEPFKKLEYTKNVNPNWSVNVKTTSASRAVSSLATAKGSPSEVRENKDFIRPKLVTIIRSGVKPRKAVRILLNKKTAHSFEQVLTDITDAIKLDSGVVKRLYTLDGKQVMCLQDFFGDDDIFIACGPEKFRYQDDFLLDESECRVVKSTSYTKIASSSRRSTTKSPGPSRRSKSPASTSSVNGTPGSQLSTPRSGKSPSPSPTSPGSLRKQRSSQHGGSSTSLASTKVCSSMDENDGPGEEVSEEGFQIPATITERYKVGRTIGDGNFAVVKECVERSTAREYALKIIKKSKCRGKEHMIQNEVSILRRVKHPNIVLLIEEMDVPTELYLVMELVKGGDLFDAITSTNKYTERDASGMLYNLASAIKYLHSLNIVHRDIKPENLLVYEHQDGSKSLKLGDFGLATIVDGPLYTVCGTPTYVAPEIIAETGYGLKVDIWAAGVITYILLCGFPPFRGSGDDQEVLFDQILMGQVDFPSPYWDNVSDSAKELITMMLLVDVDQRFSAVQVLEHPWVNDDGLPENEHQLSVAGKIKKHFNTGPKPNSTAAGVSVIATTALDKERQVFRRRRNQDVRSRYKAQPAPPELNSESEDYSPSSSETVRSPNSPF
Sequence of Eukaryotic elongation factor 2 kinase (O00418 whole entry): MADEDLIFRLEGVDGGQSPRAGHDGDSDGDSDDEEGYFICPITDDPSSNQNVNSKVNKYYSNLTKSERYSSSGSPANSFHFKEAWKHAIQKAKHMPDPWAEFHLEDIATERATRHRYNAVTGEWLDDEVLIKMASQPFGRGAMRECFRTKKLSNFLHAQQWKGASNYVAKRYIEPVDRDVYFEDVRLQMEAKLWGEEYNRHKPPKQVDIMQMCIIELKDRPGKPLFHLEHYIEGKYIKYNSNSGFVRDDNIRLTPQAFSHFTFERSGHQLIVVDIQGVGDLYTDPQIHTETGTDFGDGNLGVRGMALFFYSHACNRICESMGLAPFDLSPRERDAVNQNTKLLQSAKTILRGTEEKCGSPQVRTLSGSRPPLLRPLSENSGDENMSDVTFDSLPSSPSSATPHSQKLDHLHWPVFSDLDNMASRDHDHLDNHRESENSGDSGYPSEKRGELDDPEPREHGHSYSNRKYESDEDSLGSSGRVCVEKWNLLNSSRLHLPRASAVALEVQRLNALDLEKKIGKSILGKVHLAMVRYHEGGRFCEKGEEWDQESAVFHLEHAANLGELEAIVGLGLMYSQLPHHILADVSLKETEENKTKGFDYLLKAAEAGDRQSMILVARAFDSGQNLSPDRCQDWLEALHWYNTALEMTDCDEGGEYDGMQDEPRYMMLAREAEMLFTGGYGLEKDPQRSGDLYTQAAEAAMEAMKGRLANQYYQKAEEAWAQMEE
Sequence of Dual specificity tyrosine-phosphorylation-regulated kinase 4 (Q9NR20 whole entry): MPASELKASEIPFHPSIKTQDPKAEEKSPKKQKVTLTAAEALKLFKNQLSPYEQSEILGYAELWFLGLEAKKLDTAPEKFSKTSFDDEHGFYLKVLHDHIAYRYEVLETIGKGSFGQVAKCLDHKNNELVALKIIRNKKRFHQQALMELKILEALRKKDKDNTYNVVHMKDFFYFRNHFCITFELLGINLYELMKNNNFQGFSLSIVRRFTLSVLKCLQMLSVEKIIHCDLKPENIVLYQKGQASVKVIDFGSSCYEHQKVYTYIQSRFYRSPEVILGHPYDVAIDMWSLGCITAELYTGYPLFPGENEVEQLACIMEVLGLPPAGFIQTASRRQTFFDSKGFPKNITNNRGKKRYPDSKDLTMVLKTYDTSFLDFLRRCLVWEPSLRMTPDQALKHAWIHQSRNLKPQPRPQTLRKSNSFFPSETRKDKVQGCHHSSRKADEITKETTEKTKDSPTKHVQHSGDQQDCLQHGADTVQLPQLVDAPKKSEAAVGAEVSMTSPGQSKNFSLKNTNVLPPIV
Sequence of Testis-specific serine/threonine-protein kinase 2 (Q96PF2 whole entry): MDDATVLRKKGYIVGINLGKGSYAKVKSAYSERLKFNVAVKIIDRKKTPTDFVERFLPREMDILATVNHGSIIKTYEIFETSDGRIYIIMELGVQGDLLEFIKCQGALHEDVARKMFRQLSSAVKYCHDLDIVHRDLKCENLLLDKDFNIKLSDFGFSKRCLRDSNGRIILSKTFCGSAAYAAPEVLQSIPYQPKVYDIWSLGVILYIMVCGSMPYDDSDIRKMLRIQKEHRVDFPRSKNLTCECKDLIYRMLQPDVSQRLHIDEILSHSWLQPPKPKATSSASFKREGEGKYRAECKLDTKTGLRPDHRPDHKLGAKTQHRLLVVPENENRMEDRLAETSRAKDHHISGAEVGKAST
Sequence of Mitogen-activated protein kinase kinase kinase kinase 4 (O95819 whole entry): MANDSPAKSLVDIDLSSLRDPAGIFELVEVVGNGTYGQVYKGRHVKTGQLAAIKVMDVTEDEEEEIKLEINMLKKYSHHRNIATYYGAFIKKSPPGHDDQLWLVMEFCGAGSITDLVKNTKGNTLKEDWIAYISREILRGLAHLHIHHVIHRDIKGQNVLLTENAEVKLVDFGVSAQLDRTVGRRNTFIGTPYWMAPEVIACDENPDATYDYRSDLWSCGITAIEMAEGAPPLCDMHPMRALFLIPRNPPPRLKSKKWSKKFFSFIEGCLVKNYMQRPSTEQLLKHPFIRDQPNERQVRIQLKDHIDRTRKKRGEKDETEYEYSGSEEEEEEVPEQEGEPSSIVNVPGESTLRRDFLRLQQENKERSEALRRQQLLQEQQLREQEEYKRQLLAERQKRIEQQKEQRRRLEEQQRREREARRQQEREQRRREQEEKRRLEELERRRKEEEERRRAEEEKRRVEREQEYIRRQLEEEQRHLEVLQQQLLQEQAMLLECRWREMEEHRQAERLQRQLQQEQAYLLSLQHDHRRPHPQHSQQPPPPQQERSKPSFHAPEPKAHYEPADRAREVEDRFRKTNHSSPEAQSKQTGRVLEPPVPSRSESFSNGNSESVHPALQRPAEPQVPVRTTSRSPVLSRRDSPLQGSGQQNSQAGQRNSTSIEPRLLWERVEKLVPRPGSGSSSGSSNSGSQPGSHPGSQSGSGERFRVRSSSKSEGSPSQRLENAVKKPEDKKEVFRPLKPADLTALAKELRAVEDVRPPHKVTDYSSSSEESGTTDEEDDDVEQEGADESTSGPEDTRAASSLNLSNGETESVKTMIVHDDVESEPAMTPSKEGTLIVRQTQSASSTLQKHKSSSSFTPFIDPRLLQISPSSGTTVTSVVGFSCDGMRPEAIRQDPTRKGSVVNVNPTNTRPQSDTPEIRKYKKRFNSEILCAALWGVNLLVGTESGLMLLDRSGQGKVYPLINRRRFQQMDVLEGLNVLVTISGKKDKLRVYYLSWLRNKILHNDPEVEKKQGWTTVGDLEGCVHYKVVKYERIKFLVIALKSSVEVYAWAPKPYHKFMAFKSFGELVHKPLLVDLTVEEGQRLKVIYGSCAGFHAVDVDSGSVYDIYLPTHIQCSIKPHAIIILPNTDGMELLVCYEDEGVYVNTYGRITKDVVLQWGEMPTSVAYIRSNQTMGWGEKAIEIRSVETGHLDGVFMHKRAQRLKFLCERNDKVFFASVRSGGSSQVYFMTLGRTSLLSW
Sequence of Serine/threonine-protein kinase pim-1 (P11309 whole entry): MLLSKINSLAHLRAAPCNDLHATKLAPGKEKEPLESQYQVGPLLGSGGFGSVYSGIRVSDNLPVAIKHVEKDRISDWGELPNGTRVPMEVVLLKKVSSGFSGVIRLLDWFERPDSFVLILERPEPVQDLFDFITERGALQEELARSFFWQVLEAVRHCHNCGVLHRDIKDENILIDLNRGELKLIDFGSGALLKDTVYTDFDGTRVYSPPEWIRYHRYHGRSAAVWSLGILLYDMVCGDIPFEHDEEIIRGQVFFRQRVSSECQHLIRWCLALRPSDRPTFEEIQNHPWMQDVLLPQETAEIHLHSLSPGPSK

IC50 [1]: > 100 µM (inactive)
Structure (SMILES): Cc1ccc(-c2nc3cc(NC(=O)c4cccs4)ccc3[nH]2)o1

Structure (SMILES): Cc1nc(Nc2ncc(C(=O)Nc3c(C)cccc3Cl)s2)cc(N2CCN(CCO)CC2)n1 [DASATINIB]
Ki [2]: > 10 µM (inactive) | IC50 [3]: > 10 µM (inactive) | Ki [4]: > 1.26 µM (inactive) | Ki [5]: > 10 µM (inactive) | IC50 [6]: > 10 µM (inactive) | Ki [7]: 1.26 µM (active) | Ki [8]: > 1.58 µM (inactive) | Ki [9]: > 3.98 µM (inactive) | Ki [10]: > 3.98 µM (inactive) | Ki [11]: > 7.94 µM (inactive) | Ki [12]: > 7.94 µM (inactive)

Ki [13]: > 10 µM (inactive) | Ki [2]: > 10 µM (inactive) | Ki [14]: > 10 µM (inactive) | Ki [15]: > 10 µM (inactive) | Ki [16]: > 10 µM (inactive) | Ki [17]: 6.31 µM (active) | Ki [18]: 6.31 µM (active) | Ki [19]: > 10 µM (inactive) | Ki [20]: > 10 µM (inactive) | Ki [21]: > 10 µM (inactive) | Ki [22]: 3.98 µM (active) | Ki [23]: > 10 µM (inactive) | Ki [24]: > 10 µM (inactive) | Ki [25]: > 10 µM (inactive) | Ki [26]: 6.31 µM (active) | Ki (LIM domain kinase 1): > 10 µM (inactive) | Ki [27]: 1.58 µM (active) | Ki [28]: > 10 µM (inactive) | Ki [29]: 1 µM (active) | Ki [30]: > 10 µM (inactive)
Structure (SMILES): COc1ccc(C=C2SC(=Nc3ccccc3)NC2=O)cc1OC
